Assay type in all cases: cell-based
Assay [1] deals with MRC-5 cell line. Description: Cell viability assay for MRC-5 cell line (EZ-Cytox). As to conditions: Homo sapiens, MRC5, 120 h; MRC-5 normal cell line, 5 days, 10000 nM to 1.52 nM; N.D. = no cytotoxicity until 10 μM; read-out: Activity: IC50 value of Exemplary Compound to MRC-5 cell line. The protocol:
4. Cell Viability Assay for MRC-5 Cell Line
(1) Culture of MRC-5 Cell Line
Passage of cultured cells was maintained within P15.
(2) Treatment of Compounds of the Present Invention
Then, it was cultured in 37° C.
(3) Cytotoxicity Experiment
CO2 incubator for 4 hours.

For assay [2], the system named is NCI-H526 cell line. Description: Cell viability assay for H526 cell (EZ-Cytox). As to conditions: Homo sapiens, NCI-H526, 120 h; H526 cells, 5 days, 3000 nM to 0.46 nM. A digest of the protocol: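 Read-out was EZ-Cytox colorimetric absorbance at 450 nm, taken after brief plate shaking, with IC50 derived. Before reading, H526 cells had been cultured with test compound for 5 days.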

Assay [3] concerns the target T1, PLK1 (Homo sapiens, UniProt P53350).
T1 construct: endogenous in cells; host or cells: HeLa LgBit (Plk1-HiBit KI): HeLa stably expressing LgBit, with a CRISPR/Cas9 knock-in of HiBit at the endogenous PLK1 locus
Description: Luciferase assay for PLK1 in HeLa LgBit (Plk1-HiBit KI) cell line. To be noted: 300 nM compound, luminescence after 9 hours. A digest of the protocol:
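Luminescence, followed in real time after adding compound at 300 nM and Endurazine substrate, is reported relative to DMSO-treated wells. Cells are a HeLa LgBit line with a Plk1-HiBit knock-in, synchronized by 2 mM thymidine for 24 h, released, and cultured 18 h before treatment.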
(In general: HiBiT is a short tag that completes a luciferase, so light tracks the accessible tagged protein.)

T1 sequence (P53350 whole entry): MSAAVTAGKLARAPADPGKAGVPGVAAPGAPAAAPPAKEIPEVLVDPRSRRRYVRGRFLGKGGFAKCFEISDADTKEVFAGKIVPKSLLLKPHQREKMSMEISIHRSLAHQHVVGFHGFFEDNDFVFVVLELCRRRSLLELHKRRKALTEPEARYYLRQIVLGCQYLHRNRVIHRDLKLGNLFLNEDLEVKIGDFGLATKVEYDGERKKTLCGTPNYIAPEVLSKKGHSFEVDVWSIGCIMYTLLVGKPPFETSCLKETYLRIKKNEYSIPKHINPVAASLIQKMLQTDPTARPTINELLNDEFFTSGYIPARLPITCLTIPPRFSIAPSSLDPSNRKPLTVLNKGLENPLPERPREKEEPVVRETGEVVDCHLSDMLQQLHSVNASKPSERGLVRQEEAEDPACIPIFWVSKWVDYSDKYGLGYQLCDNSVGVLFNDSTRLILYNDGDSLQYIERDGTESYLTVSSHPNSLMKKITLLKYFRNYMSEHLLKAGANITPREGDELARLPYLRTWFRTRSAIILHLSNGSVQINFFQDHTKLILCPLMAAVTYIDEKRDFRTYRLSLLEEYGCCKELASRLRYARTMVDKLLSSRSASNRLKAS

A word on the IC50: it is the concentration at which inhibition is half-maximal. On to `COc1cc(C(=O)NN2CCC(CN3CCN(c4cccc5c4C(=O)N(C4CCC(=O)NC4=O)C5=O)CC3)CC2)ccc1Nc1ncc2c(n1)N(C1CCCC1)CC(F)(F)C(=O)N2C` (stereo not drawn) [Compound 124, 4-((9-cyclopentyl-7,7-difluoro-5-methyl-6-oxo-6,7,8,9-tetrahydro-5H-pyrimido[4,5-b][1,4]diazepin-2-yl)amino)-N-(4-((4-(2-(2,6-dioxopiperidin-3-yl)-1,3-dioxoisoindolin-4-yl)piperazin-1-yl)methyl)piperidin-1-yl)-3-methoxybenzamide], for which the 50% inhibitory concentration (IC50) in assay [1] was > 10 µM; in assay [2], < 0.03 µM. Moreover, in assay [3], the “Activity: ratio of the luminescense value of each Exemplary Compound treatment group to DMSO treatment group” value (“Activity: ratio” for short) was “++ (++<0.6)”.

In the case of `COc1cc2c(cc1Nc1ncc3c(n1)N(C1CCCC1)CC(F)(F)C(=O)N3C)CCN(C1CCN(C(=O)CCN3CCN(c4cccc5c4C(=O)N(C4CCC(=O)NC4=O)C5=O)CC3)CC1)C2=O` (stereo not drawn) [Compound 102, 4-(4-(3-(4-(6-((9-cyclopentyl-7,7-difluoro-5-methyl-6-oxo-6,7,8,9-tetrahydro-5H-pyrimido[4,5-b][1,4]diazepin-2-yl)amino)-7-methoxy-1-oxo-3,4-dihydroisoquinolin-2(1H)-yl)piperidin-1-yl)-3-oxopropyl)piperazin-1-yl)-2-(2,6-dioxopiperidin-3-yl)isoindoline-1,3-dione], the figures for the half-maximal inhibitory concentration (IC50) in assay [1] and in assay [2] were 14.4 µM and < 0.4 µM, respectively. Moreover, in assay [3], the “Activity: ratio” value was “++ (++<0.6)”.

As to `Cc1cc(C(=O)NC2CCN(C(=O)CCN3CCN(c4cccc5c4C(=O)N(C4CCC(=O)NC4=O)C5=O)CC3)CC2)ccc1Nc1ncc2c(n1)N(C1CCCC1)CC(F)(F)C(=O)N2C` (stereo not drawn) [Compound 71, 4-((9-cyclopentyl-7,7-difluoro-5-methyl-6-oxo-6,7,8,9-tetrahydro-5H-pyrimido[4,5-b][1,4]diazepin-2-yl)amino)-N-(1-(3-(4-(2-(2,6-dioxopiperidin-3-yl)-1,3-dioxoisoindolin-4-yl)piperazin-1-yl)propanoyl)piperidin-4-yl)-3-methylbenzamide], the IC50 in assay [1] was > 10 µM; in assay [2], < 0.05 µM. The “Activity: ratio” value in assay [3] is given as “++ (++<0.6)”.

For the molecule `CN1C(=O)C(F)(F)CN(C2CCCC2)c2nc(Nc3ccc(C(=O)NC4CCN(C(=O)CCN5CCN(c6cccc7c6C(=O)N(C6CCC(=O)NC6=O)C7=O)CC5)CC4)cc3O)ncc21` (stereo not drawn) [Compound 72, 4-((9-cyclopentyl-7,7-difluoro-5-methyl-6-oxo-6,7,8,9-tetrahydro-5H-pyrimido[4,5-b][1,4]diazepin-2-yl)amino)-N-(1-(3-(4-(2-(2,6-dioxopiperidin-3-yl)-1,3-dioxoisoindolin-4-yl)piperazin-1-yl)propanoyl)piperidin-4-yl)-3-hydroxybenzamide], the IC50 is > 10 µM in assay [1] and < 0.1 µM in assay [2]. For the same molecule, the “Activity: ratio” value in assay [3] is “++ (++<0.6)”.

Take `COc1cc(C(=O)NC2CCN(CCC3CCCN(c4cccc5c4C(=O)N(C4CCC(=O)NC4=O)C5=O)C3)CC2)ccc1Nc1ncc2c(n1)N(C1CCCC1)CC(F)(F)C(=O)N2C` (stereo not drawn) [Compound 55, 4-((9-cyclopentyl-7,7-difluoro-5-methyl-6-oxo-6,7,8,9-tetrahydro-5H-pyrimido[4,5-b][1,4]diazepin-2-yl)amino)-N-(1-(2-(1-(2-(2,6-dioxopiperidin-3-yl)-1,3-dioxoisoindolin-4-yl)piperidin-3-yl)ethyl)piperidin-4-yl)-3-methoxybenzamide]: the IC50 in assay [1] was 3.81 µM; in assay [2], < 0.1 µM. Besides, the “Activity: ratio” value in assay [3] is “++ (++<0.6)”.

`COc1cc(C(=O)N[C@H]2CC[C@H](N3CCN(c4cccc5c4C(=O)N(C4CCC(=O)NC4=O)C5=O)CC3)CC2)ccc1Nc1ncc2c(n1)N(C1CCCC1)CC(F)(F)C(=O)N2C` (stereo partly drawn) [Compound 131, 4-((9-cyclopentyl-7,7-difluoro-5-methyl-6-oxo-6,7,8,9-tetrahydro-5H-pyrimido[4,5-b][1,4]diazepin-2-yl)amino)-N-((1r,4r)-4-(4-(2-(2,6-dioxopiperidin-3-yl)-1,3-dioxoisoindolin-4-yl)piperazin-1-yl)cyclohexyl)-3-methoxybenzamide]: the IC50 was > 10 µM in assay [1] and < 0.05 µM in assay [2]. In assay [3], the “Activity: ratio” value was “++ (++<0.6)”.

In the case of `COc1cc(C(=O)N[C@H]2CC[C@@H](N(C)CCN3CCN(c4cccc5c4C(=O)N(C4CCC(=O)NC4=O)C5=O)CC3)CC2)ccc1Nc1ncc2c(n1)N(C1CCCC1)CC(F)(F)C(=O)N2C` (stereo partly drawn) [Compound 128, 4-((9-cyclopentyl-7,7-difluoro-5-methyl-6-oxo-6,7,8,9-tetrahydro-5H-pyrimido[4,5-b][1,4]diazepin-2-yl)amino)-N-((1s,4s)-4-((2-(4-(2-(2,6-dioxopiperidin-3-yl)-1,3-dioxoisoindolin-4-yl)piperazin-1-yl)ethyl)(methyl)amino)cyclohexyl)-3-methoxybenzamide], the concentration for half-maximal inhibition (IC50) in assay [1] is 18.8 µM; in assay [2], < 0.05 µM. In addition, the “Activity: ratio” value in assay [3] was “++ (++<0.6)”.

Regarding `COc1cc(C(=O)NC2CCN(C(=O)CC3CCN(c4ccc5c(c4)C(=O)N(C4CCC(=O)NC4=O)C5=O)C3)CC2)c(F)cc1Nc1ncc2c(n1)N(C1CCCC1)CC(F)(F)C(=O)N2C` (stereo not drawn) [Compound 45, 4-((9-cyclopentyl-7,7-difluoro-5-methyl-6-oxo-6,7,8,9-tetrahydro-5H-pyrimido[4,5-b][1,4]diazepin-2-yl)amino)-N-(1-(2-(1-(2-(2,6-dioxopiperidin-3-yl)-1,3-dioxoisoindolin-5-yl)pyrrolidin-3-yl)acetyl)piperidin-4-yl)-2-fluoro-5-methoxybenzamide], the IC50 in assay [1] is > 10 µM; in assay [2], < 0.1 µM. Moreover, the “Activity: ratio” value in assay [3] is listed as “++ (++<0.6)”.

On to `COc1cc(C(=O)NC2CC3(CCN(CC4CCN(c5cccc6c5C(=O)N(C5CCC(=O)NC5=O)C6=O)CC4)CC3)C2)ccc1Nc1ncc2c(n1)N(C1CCCC1)CC(F)(F)C(=O)N2C` (stereo not drawn) [Compound 136, 4-((9-cyclopentyl-7,7-difluoro-5-methyl-6-oxo-6,7,8,9-tetrahydro-5H-pyrimido[4,5-b][1,4]diazepin-2-yl)amino)-N-(7-((1-(2-(2,6-dioxopiperidin-3-yl)-1,3-dioxoisoindolin-4-yl)piperidin-4-yl)methyl)-7-azaspiro[3.5]nonan-2-yl)-3-methoxybenzamide], for which the concentration for half-maximal inhibition (IC50) in assay [1] is 6.52 µM; in assay [2], < 0.03 µM. Further, in assay [3], the “Activity: ratio” value is given as “+++ (+++: <0.3)”.

For `COc1cc(C(=O)NC2CCN(C(=O)CCCNc3cccc4c3C(=O)N(C3CCC(=O)NC3=O)C4=O)CC2)ccc1Nc1ncc2c(n1)N(C1CCCC1)CC(F)(F)C(=O)N2C` (stereo not drawn) [Compound 25, 4-((9-cyclopentyl-7,7-difluoro-5-methyl-6-oxo-6,7,8,9-tetrahydro-5H-pyrimido[4,5-b][1,4]diazepin-2-yl)amino)-N-(1-(4-((2-(2,6-dioxopiperidin-3-yl)-1,3-dioxoisoindolin-4-yl)amino)butanoyl)piperidin-4-yl)-3-methoxybenzamide], the results for the concentration for half-maximal inhibition (IC50) in assay [1] and in assay [2] were > 10 µM and < 0.05 µM, respectively. Also, the “Activity: ratio” value in assay [3] is “++ (++<0.6)”.

Consider `COc1cc(C(=O)N[C@H]2CC[C@H](N(C)CC3CCN(c4cccc5c4C(=O)N(C4CCC(=O)NC4=O)C5=O)CC3)CC2)ccc1Nc1ncc2c(n1)N(C(C)C)CC(F)(F)C(=O)N2C` (stereo partly drawn) [Compound 152, 4-((7,7-difluoro-9-isopropyl-5-methyl-6-oxo-6,7,8,9-tetrahydro-5H-pyrimido[4,5-b][1,4]diazepin-2-yl)amino)-N-((1r,4r)-4-(((1-(2-(2,6-dioxopiperidin-3-yl)-1,3-dioxoisoindolin-4-yl)piperidin-4-yl)methyl)(methyl)amino)cyclohexyl)-3-methoxybenzamide], for which the half-maximal inhibitory concentration (IC50) is 6.17 µM in assay [1] and < 0.05 µM in assay [2]. Besides, the “Activity: ratio” value in assay [3] was “++ (++<0.6)”.

With `COc1cc(C(=O)NC2CC3(CCN(CC4CCN(c5ccc6c(c5)C(=O)N(C5CCC(=O)NC5=O)C6=O)CC4)CC3)C2)ccc1Nc1ncc2c(n1)N(C1CCCC1)CC(F)(F)C(=O)N2C` (stereo not drawn) [Compound 137, 4-((9-cyclopentyl-7,7-difluoro-5-methyl-6-oxo-6,7,8,9-tetrahydro-5H-pyrimido[4,5-b][1,4]diazepin-2-yl)amino)-N-(7-((1-(2-(2,6-dioxopiperidin-3-yl)-1,3-dioxoisoindolin-5-yl)piperidin-4-yl)methyl)-7-azaspiro[3.5]nonan-2-yl)-3-methoxybenzamide], the values for the half-inhibitory concentration (IC50) in assay [1] and in assay [2] were 16.9 µM and < 0.03 µM, respectively. For the same molecule, the “Activity: ratio” value in assay [3] was “++ (++<0.6)”.

The values are drawn from patent US20250114460A1, “NOVEL PLK1 DEGRADATION INDUCING COMPOUND” (UPPTHERA, INC., priority 2021, published 2025).
